This passage reports GI50 and TGI results from PubChem BioAssay (NCI).

Holding throughout (assay): NCI tumour cell line growth inhibition, 48 h
The test system of assay [1] is HS 578T breast.
The test system of assay [2] is SK-MEL-5 melanoma.
Assay [3] relates to MALME-3M melanoma.
Assay [4] deals with SNB-19 CNS.
Assay [5] concerns DU-145 prostate.
Assay [6] relates to U251 CNS.
Assay [7] concerns HCT-15 colon.
The subject of assay [8] is NCI-H522 lung.
In assay [9] the test system is DMS 114 small cell lung.
Assay [10] relates to HOP-18 NSCLC.

Values joined by “and” are separate entries in the source; they are usually repeats but may differ in a detail not shown here. Equal entries are not always repeated.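 Test compounds were applied to cells in 96-well plates for 48 hours at 5 doses. GI50: concentration for 50% inhibition of growth. TGI is the concentration that stops growth completely.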 Bounds are passed on as bounds.

Regarding `N#C/C(=C\c1ccc(Cl)cc1)n1nnc2cc(F)c(F)cc21`, the GI50 was 2.76 µM in assay [1]; 1.62 µM in [2]; 2.06 µM in assay [3]; 1.82 µM in assay [4]; 1.69 µM in assay [5]; 1.62 µM in [6]. In addition, the GI50 is 1.42 µM in assay [7] and 1.59 µM in [8]. The TGI is 8.49 µM in [1]; 3.04 µM in assay [2]; 5.34 µM in assay [3]; 3.78 µM in [4]; 3.11 µM in assay [5]; 3.06 µM in assay [6]. For the same molecule, the TGI in assay [7] is 3.55 µM; in [8], 3.85 µM.
Consider `CCOC(=O)c1ccc(C(O)CC(=O)OC(C)(C)C)[nH]1` (configuration not stated), for which the GI50 is 48.3 µM in assay [1]; 27.3 µM in assay [2]; 0.692 µM in assay [3]; 42.9 µM in assay [4]; 59.7 µM in [5]; 39.5 µM in [6]. The GI50 in assay [7] was 34.4 µM; in [8], 9.5 µM. For the same molecule, the TGI in assay [1] was more than 100 µM; in [2], 89 µM; in assay [3], 24.8 µM; in [4] it was more than 100 µM; in assay [5], more than 100 µM; in assay [6], more than 100 µM. Besides, the TGI in assay [7] is more than 100 µM; in assay [8] it was 25.9 µM.
Regarding `O=C1OC2(c3ccccc31)c1cc(I)c(O)c(I)c1Oc1c2cc(I)c(O)c1I`, the TGI in assay [1], in assay [2], in [3], in assay [4], in assay [5] and in assay [6] was more than 100 µM each time. For the same molecule, the results for the TGI in assay [7] and in assay [8] were more than 100 µM and 78.5 µM, respectively.
Take `CN(C)c1ccc2[nH]c(O)c(C=Nc3ccc(S(N)(=O)=O)cc3)c2c1`: the GI50 in assay [1], in assay [2], in assay [3], in assay [4], in assay [5] and in [6] was more than 25 µM throughout. In addition, the GI50 in assay [7] and in [8] was more than 25 µM in each case. The TGI in assay [1], in [2], in assay [3], in [4], in [5] and in assay [6] was more than 25 µM each time. Further, the TGI in [7] and in assay [8] was more than 25 µM each time.
With `Cc1c(N(C(=O)c2cc(-c3cc(Cl)ccc3C(=O)N3Cc4ccccc4C[C@H]3CN3CCOCC3)n(C)c2C)c2ccc(O)cc2)cc(C#N)n1C`, the GI50 was 19 µM in assay [1]; 14.6 µM in assay [2]; 20.8 µM in assay [3]; 13.8 µM in [4]; 32.5 µM in [5]; 18.9 µM in assay [6]. Moreover, the results for the GI50 in assay [7] and in assay [8] were 16.6 µM and 20.4 µM, respectively. Moreover, the TGI in [1] was 75.3 µM; in [2], 36.9 µM; in assay [3], 64.3 µM; in assay [4], more than 100 µM; in assay [5] it was more than 100 µM; in assay [6], more than 100 µM. Also, the TGI in [7] and in assay [8] was more than 100 µM throughout.
In the case of `COc1cc2c3c(n(CCCn4ccnc4)c(=O)c2cc1OC)-c1ccccc1C3=O`, the GI50 is 11.6 µM in assay [1]; less than 0.0333 µM in assay [2]; 1.06 µM in assay [3]; less than 0.0285 µM in assay [4]; less than 0.0209 µM in assay [5]; less than 0.0122 µM in assay [6]. The GI50 in assay [7] is 0.159 µM; in assay [8] it was less than 0.01 µM. For the same molecule, the TGI in assay [1] is more than 100 µM; in assay [2], 0.0861 µM; in assay [3], more than 60.8 µM; in [4], more than 69 µM; in assay [6] it was 0.57 µM; in assay [7], 2.37 µM. The TGI in [8] is 0.0612 µM.
Regarding `CC1CC(C)C(=O)C(C(=O)CC2CC(=O)NC2=O)C1` (configuration not stated), the TGI in assay [9], in assay [3], in assay [4], in assay [10], in assay [6] and in assay [8] was more than 100 µM in each case.
For `CCOC(=O)CCc1c(C)c2ccc(O)cc2oc1=O`, the TGI in assay [1], in assay [2], in assay [3], in [4], in [5] and in [6] was more than 100 µM throughout. In addition, the TGI in assay [7] and in assay [8] was more than 100 µM in each case.
For `C=C1C(=O)O[C@H]2[C@H]1CC/C(COC(=O)N[C@@H](Cc1c[nH]c3ccccc13)C(=O)OC)=C\CC[C@@]1(C)O[C@@H]21`, the GI50 was 4.62 µM in [1]; 1.68 µM in assay [2]; 1.51 µM in assay [3]; 2.48 µM in assay [4]; 1.08 µM in assay [5]; 2.42 µM in [6]. The results for the GI50 in assay [7] and in [8] were 1.45 µM and 1.31 µM, respectively. Moreover, the TGI in assay [1] turned out to be 28.5 µM; in [2], 3.26 µM; in assay [3], 3.07 µM; in [4] it was 7.52 µM; in assay [5], 2.44 µM; in assay [6] it was 7.32 µM. Further, the TGI was found to be 3.91 µM in assay [7] and 2.84 µM in assay [8].
Consider `COc1cc(N)ccc1Nc1c2ccccc2nc2ccccc12`, for which the GI50 in assay [1] was 14.3 µM; in assay [2] it was 7.52 µM; in assay [3] it was 14.6 µM; in [4], 15.9 µM; in assay [5] it was 3.79 µM; in assay [6], 4.39 µM. The GI50 is 2.86 µM in [7] and 17.9 µM in [8]. The TGI in [1] was determined as 44.3 µM; in assay [2], 21.5 µM; in assay [3] it was 35.1 µM; in assay [4], 38.1 µM; in assay [5], 14.8 µM; in assay [6], 11.5 µM. The TGI was determined as 12 µM in [7] and 51.3 µM in assay [8].
Consider `Cc1cc(-c2cc(C)c(O)c(C(C)(C)C)c2)cc(C(C)(C)C)c1O`, for which the TGI was 27.1 µM and 32.7 µM in assay [1]; 22.3 µM and 28.2 µM in assay [2]; 28.3 µM and 41.1 µM in assay [3]; 27.7 µM and 26.7 µM in assay [4]; 25.7 µM and 28.5 µM in assay [5]; 22.4 µM and 26.4 µM in assay [6]. In addition, the TGI in assay [7] is 18.1 µM and 23.5 µM; in assay [8], 22.5 µM and 28.2 µM. In addition, the GI50 in [7] is 5.13 µM and 10.8 µM.
